What all share (format): cell-based
The target in one assay is T1, Smo D473H mutant (Homo sapiens, UniProt Q99835, D473H).
T1 construct: expressed in transfected cells; host or cells: C3H10T1/2 cells (ATCC CCL-226), transient transfection with pLPCX-SMO-D473H
The assay is described as follows: Reporter assay of C3H10T1/2-Gli-Luc cells transfected with Smo D473H mutant, without SAG. The following applies: C3H10T1/2 cells transfected with pLPCX-SMO-D473H, no SAG, 48 hr; read-out: Inhibition of C3H10T1/2-Gli-Luc-Smo-D473H [IC50. The method, then:
(§1) A transient transfection system with a Smo wild type or a Smo D473H mutant was also used for compound screening. For the SMO inhibition experiments, cells were transfected with an additional 500 ng/well of wild-type or D473H-mutant type SMO construct (pLPCX-SMO or pLPCX-SMO-D473H). After 24 h, transfected cells were collected by trypsin treatment and re-plated in 96-well plates in an RPMI medium containing 0.5% FBS with a density of 1.5×10^4 cells/well. Compounds were dissolved in DMSO with serial dilutions and were then added to the assay plate. The assay plates were incubated at 37° C. for 48 hr.
(§2) Firefly luciferase and Renilla luciferase activity was determined using the Dual-Glo Luciferase reporter assay system (Promega) with a Victor3 plate reader (PerkinElmer Life Sciences). Firefly luciferase readings were normalized to Renilla luciferase to correct for transfection efficiency. Luminance reading for the C3H10T1/2-Gli-Luc assay was normalized based on DMSO control with SAG stimulation (100% pathway activity) and without SAG stimulation (0% pathway activity). IC50 values, defined as the inflection point of the logistic curve, were determined by nonlinear regression using the Prism 5 software (GraphPad).
(§3) The reporter assay of C3H10T1/2-Gli-Luc cells transfected with a wild-type, D473H mutant Smo mutant was carried out with the same protocol but without SAG stimulation. Luminance reading for the SMO inhibition experiments assay was normalized based on DMSO control (100% of the pathway activity) and a known Smo antagonist (ALLO-2 at 10 μM, 0% of the pathway activity).
(In general: Reporter assays use an easily measured gene product as a stand-in for the process of interest.)

The subject of assay [1] is hedgehog pathway (pGL3-7xGli-Luciferase reporter in C3H10T1/2 cells). As to the kind of experiment: Transient transfection of C3H10T1/2 and Gli-Luc reporter assay with SAG stimulation. The following applies: Mus musculus, C3H 10T1/2, SAG 20 nM, 48 hr, read-out: Inhibition of Gli-Luc expression [IC50. The method, then:
A cell-based screen for inhibitors of the hedgehog pathway was performed using a transient transfection system in C3H10T1/2 cells with pGL3-7xGli-Luciferase reporter plasmids C3H10T1/2 cells (ATCC, cat.#CCL-226) were seeded into 6-well plates at 8×10^4 cells/well in a BME medium containing 10% heat-inactivated FBS. Cells were transfected the next morning with 500 ng/well pGL3-7xGli-Luciferase reporter plasmids and 100 ng/well pRL-TK Renilla luciferase reporter plasmids (Promega)using GeneJuice transfection reagent (Novagene). After 24 h, transfected cells were collected by trypsin treatment and re-plated in 96-well plates in an RPMI medium containing 0.5% FBS with a density of 1.5×10^4 cells/well. Compounds were dissolved in DMSO with serial dilutions and were then added to the assay plate. SAG (Hh-Ag 1.3) (Santa Cruz) was added to the assay plated for a final concentration 20 nM. The assay plates were incubated at 37° C. for 48 hr.
as §2

Another assay has as its target T2, Smo wild type (Homo sapiens, UniProt Q99835).
T2 construct: expressed in transfected cells; host or cells: C3H10T1/2 cells (ATCC CCL-226), transient transfection with pLPCX-SMO
The assay is described as follows: Reporter assay of C3H10T1/2-Gli-Luc cells transfected with wild-type Smo, without SAG. The following applies: C3H10T1/2 cells transfected with pLPCX-SMO, no SAG, 48 hr; read-out: Inhibition of C3H10T1/2-Gli-Luc-Smo-WT [IC50. The method, then:
as §1, §2, §3

Each structure is given as a SMILES string.

T1 sequence (Q99835 28-787 D473H): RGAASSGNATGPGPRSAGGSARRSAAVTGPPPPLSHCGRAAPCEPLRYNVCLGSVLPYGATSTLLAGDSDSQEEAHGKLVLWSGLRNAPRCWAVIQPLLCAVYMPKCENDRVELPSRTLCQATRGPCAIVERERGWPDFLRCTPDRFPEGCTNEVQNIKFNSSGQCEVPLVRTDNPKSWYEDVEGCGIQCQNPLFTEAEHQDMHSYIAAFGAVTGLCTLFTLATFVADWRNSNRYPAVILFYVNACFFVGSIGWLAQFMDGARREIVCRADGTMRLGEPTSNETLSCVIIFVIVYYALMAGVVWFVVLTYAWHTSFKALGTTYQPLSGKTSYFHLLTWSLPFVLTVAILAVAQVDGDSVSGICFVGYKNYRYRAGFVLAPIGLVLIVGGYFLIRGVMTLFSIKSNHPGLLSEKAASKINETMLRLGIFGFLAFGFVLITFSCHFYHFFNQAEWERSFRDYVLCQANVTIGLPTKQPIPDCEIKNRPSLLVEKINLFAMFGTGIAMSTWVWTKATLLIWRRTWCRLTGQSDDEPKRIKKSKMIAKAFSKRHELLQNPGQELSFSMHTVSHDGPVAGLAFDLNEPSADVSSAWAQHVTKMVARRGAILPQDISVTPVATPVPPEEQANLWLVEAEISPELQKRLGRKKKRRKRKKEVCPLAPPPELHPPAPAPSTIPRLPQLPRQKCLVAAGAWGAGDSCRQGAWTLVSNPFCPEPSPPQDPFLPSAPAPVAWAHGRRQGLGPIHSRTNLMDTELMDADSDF
T2 sequence (Q99835 28-787): as the sequence (Q99835 28-787 D473H) above, with H446D counted along it

For `CSc1cnc(Nc2ccc(C(=O)Nc3cc(CN4CCOCC4)ccc3C)cc2F)nc1-c1ccc(F)cc1` [Compound 41, 3-Fluoro-4-[4-(4-fluoro-phenyl)-5-methylsulfanyl-pyrimidin-2-ylamino]-N-(2-methyl-5-morpholin-4-ylmethyl-phenyl)-benzamide], the IC50 on Smo D473H mutant is 100 to 1000 nM; in assay [1] it was less than 100 nM; at Smo wild type it was less than 100 nM.
With `CSc1cnc(Nc2ccc(C(=O)Nc3cc(CN4CCCCC4)ccc3C)cc2F)nc1-c1ccc(F)cc1` [Compound 42, 3-Fluoro-4-[4-(4-fluoro-phenyl)-5-methylsulfanyl-pyrimidin-2-ylamino]-N-(2-methyl-5-piperidin-1-ylmethyl-phenyl)-benzamide], the IC50 on Smo D473H mutant was 100 to 1000 nM; in assay [1] it was less than 100 nM; at Smo wild type, less than 100 nM.
Take `CSc1cnc(Nc2ccc(C(=O)Nc3cccc(CN4CCOCC4)c3)cc2)nc1-c1ccc(F)cc1` [Compound 43, 4-[4-(4-Fluoro-phenyl)-5-methylsulfanyl-pyrimidin-2-ylamino]-N-(3-morpholin-4-ylmethyl-phenyl)-benzamide]: the IC50 at Smo D473H mutant is 100 to 1000 nM; in assay [1], less than 100 nM; on Smo wild type it was less than 100 nM.
As for `CSc1cnc(Nc2ccc(C(=O)Nc3cccc(CN4CCOCC4)c3)cc2F)nc1-c1ccc(OC(F)(F)F)cc1` [Compound 44, 3-Fluoro-4-[5-methylsulfanyl-4-(4-trifluoromethoxy-phenyl)-pyrimidin-2-ylamino]-N-(3-morpholin-4-ylmethyl-phenyl)-benzamide], the IC50 (at Smo D473H mutant; in assay [1]; on Smo wild type) was less than 100 nM throughout.
For `CSc1cnc(Nc2ccc(C(=O)Nc3cc(CN4CCOCC4)ccc3C)cc2F)nc1-c1cnn(C)c1` [Compound 45, 3-Fluoro-N-(2-methyl-5-morpholin-4-ylmethyl-phenyl)-4-[4-(1-methyl-1H-pyrazol-4-yl)-5-methylsulfanyl-pyrimidin-2-ylamino]-benzamide], the IC50 (on Smo D473H mutant; in assay [1]; at Smo wild type) was less than 100 nM in each case.
For `CSc1cnc(Nc2ccc(C(=O)Nc3cc(CN4CCN(C)CC4)ccc3C)cc2F)nc1-c1cnn(C)c1` [Compound 46, 3-Fluoro-N-[2-methyl-5-(4-methyl-piperazin-1-ylmethyl)-phenyl]-4-[4-(1-methyl-1H-pyrazol-4-yl)-5-methylsulfanyl-pyrimidin-2-ylamino]-benzamide], the IC50 at Smo D473H mutant is 100 to 1000 nM; in assay [1] it was less than 100 nM; at Smo wild type, less than 100 nM.
Regarding `CCN(CC)Cc1ccc(C)c(NC(=O)c2ccc(Nc3ncc(SC)c(-c4ccc(F)cc4)n3)cc2)c1` [Compound 47, N-(5-Diethylaminomethyl-2-methyl-phenyl)-4-[4-(4-fluoro-phenyl)-5-methylsulfanyl-pyrimidin-2-ylamino]-benzamide], the IC50 on Smo D473H mutant was 100 to 1000 nM; in assay [1], less than 100 nM; on Smo wild type, less than 100 nM.
Take `CSc1cnc(Nc2ccc(C(=O)Nc3cc(CN4CCCCC4)ccc3C)cc2)nc1-c1ccc(F)cc1` [Compound 48, 4-[4-(4-Fluoro-phenyl)-5-methylsulfanyl-pyrimidin-2-ylamino]-N-(2-methyl-5-piperidin-1-ylmethyl-phenyl)-benzamide]: the results for the IC50 (at Smo D473H mutant; in assay [1]; on Smo wild type) were 100 to 1000 nM, less than 100 nM and less than 100 nM, respectively.
In the case of `COc1cnc(Nc2ccc(C(=O)Nc3cc(CN4CCOCC4)ccc3C)cc2)nc1-c1ccc(C#N)cc1` [Compound 49, 4-[4-(4-Cyano-phenyl)-5-methoxy-pyrimidin-2-ylamino]-N-(2-methyl-5-morpholin-4-ylmethyl-phenyl)-benzamide], the IC50 at Smo D473H mutant was more than 1000 nM; in assay [1], 100 to 1000 nM; on Smo wild type, 100 to 1000 nM.
Regarding `CCN(CC)Cc1ccc(C)c(NC(=O)c2ccc(Nc3ncc(OC)c(-c4ccc(C#N)cc4)n3)cc2)c1` [Compound 50, 4-[4-(4-Cyano-phenyl)-5-methoxy-pyrimidin-2-ylamino]-N-(5-diethylaminomethyl-2-methyl-phenyl)-benzamide], the IC50 on Smo D473H mutant was 100 to 1000 nM; in assay [1], less than 100 nM; on Smo wild type, less than 100 nM.
Take `COc1cnc(Nc2ccc(C(=O)Nc3cc(CN4CCN(C)CC4)ccc3C)cc2)nc1-c1ccc(C#N)cc1` [Compound 51, 4-[4-(4-Cyano-phenyl)-5-methoxy-pyrimidin-2-ylamino]-N-[2-methyl-5-(4-methyl-piperazin-1-ylmethyl)-phenyl]-benzamide]: the IC50 is 100 to 1000 nM at Smo D473H mutant, less than 100 nM in assay [1] and less than 100 nM at Smo wild type.
As for `COc1cnc(Nc2ccc(C(=O)Nc3cc(CN4CCN(C)CC4)ccc3C)cc2)nc1-c1ccc(OC(F)(F)F)cc1` [Compound 52, 4-[5-Methoxy-4-(4-trifluoromethoxy-phenyl)-pyrimidin-2-ylamino]-N-[2-methyl-5-(4-methyl-piperazin-1-ylmethyl)-phenyl]-benzamide], the figures for the IC50 (on Smo D473H mutant; in assay [1]; at Smo wild type) were more than 1000 nM, less than 100 nM and less than 100 nM, respectively.
For the compound `CCN(CC)Cc1ccc(C)c(NC(=O)c2ccc(Nc3ncc(SC)c(-c4ccc(F)cc4)n3)c(F)c2)c1` [Compound 53, N-(5-Diethylaminomethyl-2-methyl-phenyl)-3-fluoro-4-[4-(4-fluoro-phenyl)-5-methylsulfanyl-pyrimidin-2-ylamino]-benzamide], the IC50 (on Smo D473H mutant; in assay [1]; at Smo wild type) was less than 100 nM each time.
In the case of `CSc1cnc(Nc2ccc(C(=O)Nc3cc(CN(C)C)ccc3C)cc2)nc1-c1ccc(OC(F)(F)F)cc1` [Compound 54, N-(5-Dimethylaminomethyl-2-methyl-phenyl)-4-[5-methylsulfanyl-4-(4-trifluoromethoxy-phenyl)-pyrimidin-2-ylamino]-benzamide], the IC50 is 100 to 1000 nM at Smo D473H mutant, less than 100 nM in assay [1] and 100 to 1000 nM at Smo wild type.
Regarding `CSc1cnc(Nc2ccc(C(=O)Nc3cc(CN4CCOCC4)ccc3F)cc2F)nc1-c1ccc(OC(F)(F)F)cc1` [Compound 55, 3-Fluoro-N-(2-fluoro-5-morpholin-4-ylmethyl-phenyl)-4-[5-methylsulfanyl-4-(4-trifluoromethoxy-phenyl)-pyrimidin-2-ylamino]-benzamide], the IC50 (at Smo D473H mutant; in assay [1]; on Smo wild type) was less than 100 nM throughout.
With `CCN(CC)Cc1cccc(NC(=O)c2ccc(Nc3ncc(SC)c(-c4ccc(OC(F)(F)F)cc4)n3)c(F)c2)c1` [Compound 56, N-(3-Diethylaminomethyl-phenyl)-3-fluoro-4-[5-methylsulfanyl-4-(4-trifluoromethoxy-phenyl)-pyrimidin-2-ylamino]-benzamide], the IC50 is 100 to 1000 nM on Smo D473H mutant, less than 100 nM in assay [1] and less than 100 nM on Smo wild type.
Consider `CSc1cnc(Nc2ccc(C(=O)Nc3cc(CN4CCOCC4)ccc3F)cc2F)nc1-c1ccc(F)cc1` [Compound 57, 3-Fluoro-N-(2-fluoro-5-morpholin-4-ylmethyl-phenyl)-4-[4-(4-fluoro-phenyl)-5-methylsulfanyl-pyrimidin-2-ylamino]-benzamide], for which the IC50 at Smo D473H mutant is 100 to 1000 nM; in assay [1], less than 100 nM; on Smo wild type, less than 100 nM.
As for `COc1ccc(CN2CCOCC2)cc1NC(=O)c1ccc(Nc2ncc(SC)c(-c3ccc(OC(F)(F)F)cc3)n2)c(F)c1` [Compound 58, 3-Fluoro-N-(2-methoxy-5-morpholin-4-ylmethyl-phenyl)-4-[5-methylsulfanyl-4-(4-trifluoromethoxy-phenyl)-pyrimidin-2-ylamino]-benzamide], the IC50 on Smo D473H mutant was 100 to 1000 nM; in assay [1], less than 100 nM; on Smo wild type, less than 100 nM.

These data come from patent publication US10793542B2, “Hetroarylamine compounds for modulating the hedgehog pathway and preparing method and uses thereof” (DEVELOPMENT CENTER FOR BIOTECHNOLOGY, priority 2016, dated 2020).
